Molecular target: GLP-1R (Homo sapiens, UniProt P43220)
Assay: In vitro activity assay (cAMP HTRF, HEK293-CRE-luc-GLP-1R cells)
Format: cell-based
Design: expressed in transfected cells; host or cells: HEK293 (HEK293-CRE-luc-GLP-1R)
Details: cAMP HTRF 665 nm/620 nm, 1 h incubation
Protocol: HEK293-CRE-luc-GLP-1R cells were seeded into a 384-well cell culture plate (Greiner #781946) at a certain cell density (5 µL/well). 5 µl/well of 2× working solution was added to the 384-well microplate. The microplate was sealed with parafilm and incubated in a 37°C 5% CO2 incubator (Thermo) for 1 h. Subsequently, the detection was performed using the cAMP-GS HIRANGE KIT (PerkinElmer, 62AM6PEB), and detection reagents were prepared according to the kit instruction manual. After the incubation, the detection reagents were added to the 384-well microplate, and the microplate was incubated for 1 h at room temperature in the dark. HTRF signals at 665 nm and 620 nm were then measured using a multimode microplate reader. Data were exported from the microplate reader in Excel format. GraphPad Prism was opened. The logarithm of the sample concentration was calculated. Using the logarithm of concentration as the x-axis and the 665 nm/620 nm ratio as the y-axis, four-parameter logistic fitting was performed to obtain the EC50 value of the curve. Table 1: EC50 of compounds against GLP-1

Chain of GLP-1R (P43220 24-463): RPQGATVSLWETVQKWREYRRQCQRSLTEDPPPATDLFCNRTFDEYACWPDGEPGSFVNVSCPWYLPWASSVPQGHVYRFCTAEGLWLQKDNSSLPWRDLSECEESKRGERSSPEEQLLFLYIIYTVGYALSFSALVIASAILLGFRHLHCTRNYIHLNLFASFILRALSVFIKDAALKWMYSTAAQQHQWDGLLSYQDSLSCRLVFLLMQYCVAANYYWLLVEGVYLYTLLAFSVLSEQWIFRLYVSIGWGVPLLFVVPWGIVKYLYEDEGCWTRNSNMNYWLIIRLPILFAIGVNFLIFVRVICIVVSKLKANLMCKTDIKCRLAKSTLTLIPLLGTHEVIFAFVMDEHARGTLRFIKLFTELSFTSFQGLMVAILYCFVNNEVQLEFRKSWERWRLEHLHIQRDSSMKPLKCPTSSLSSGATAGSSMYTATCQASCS

SMILES | EC50 [nM]
Cc1cc(-n2nc3c(c2-n2ccn(-c4ccc5c(c4)N(C)C(=O)C54CCCC4)c2=O)[C@H](C)N(C(=O)c2cc4cc([C@H]5CCOC(C)(C)C5)ccc4n2[C@@]2(c4noc(=O)[nH]4)C[C@@H]2C)CC3)cc(C)c1F [Compound 5] | < 1
Cc1cc(-n2nc3c(c2-n2ccn(-c4ccc5c(c4F)N(C)C(=O)C54CCOCC4)c2=O)[C@H](C)N(C(=O)c2cc4cc([C@H]5CCOC(C)(C)C5)ccc4n2[C@@]2(c4noc(=O)[nH]4)C[C@@H]2C)CC3)cc(C)c1F [Compound 7] | < 1
[2H]C([2H])([2H])N1C(=O)C2(CCOCC2)c2ccc(-n3ccn(-c4c5c(nn4-c4cc(C)c(F)c(C)c4)CCN(C(=O)c4cc6cc([C@H]7CCOC(C)(C)C7)ccc6n4[C@@]4(c6noc(=O)[nH]6)C[C@@H]4C)[C@H]5C)c3=O)c(F)c21 [Compound 8] | < 1
Cc1cc(-n2nc3c(c2-n2ccn(-c4ccc5c(c4)N(C)C(=O)C54CCN(C(=O)C5CC5)CC4)c2=O)[C@H](C)N(C(=O)c2cc4cc([C@H]5CCOC(C)(C)C5)ccc4n2[C@@]2(c4noc(=O)[nH]4)C[C@@H]2C)CC3)cc(C)c1F [Compound 12] | < 1
Cc1cc(-n2nc3c(c2-n2ccn(-c4ccc5c(c4)N(C)C(=O)C54CCN(C(=O)[C@@H]5C[C@H]5F)CC4)c2=O)[C@H](C)N(C(=O)c2cc4cc([C@H]5CCOC(C)(C)C5)ccc4n2[C@@]2(c4noc(=O)[nH]4)C[C@@H]2C)CC3)cc(C)c1F [Compound 13] | < 1
Cc1cc(-n2nc3c(c2-n2ccn(-c4ccc5c(c4)N(C)C(=O)C54CCN(C(=O)N[C@@H]5C[C@@H]5F)CC4)c2=O)[C@H](C)N(C(=O)c2cc4cc([C@H]5CCOC(C)(C)C5)ccc4n2[C@@]2(c4noc(=O)[nH]4)C[C@@H]2C)CC3)cc(C)c1F [Compound 17] | < 1
Cc1cc(-n2nc3c(c2-n2ccn(-c4ccc5c(c4)N(C)C(=O)C54CCN(C(=O)C5COC5)CC4)c2=O)[C@H](C)N(C(=O)c2cc4cc([C@H]5CCOC(C)(C)C5)ccc4n2[C@@]2(c4noc(=O)[nH]4)C[C@@H]2C)CC3)cc(C)c1F [Compound 18] | < 1
Cc1cc(-n2nc3c(c2-n2ccn(-c4ccc5c(c4)N(C)C(=O)C54CCN(S(=O)(=O)C5CC5)CC4)c2=O)[C@H](C)N(C(=O)c2cc4cc([C@H]5CCOC(C)(C)C5)ccc4n2[C@@]2(c4noc(=O)[nH]4)C[C@@H]2C)CC3)cc(C)c1F [Compound 20] | < 1
Cc1cc(-n2nc3c(c2-n2ccn(-c4ccc5c(c4)N(C)C(=O)C54CCN(C(=O)C5C6COCC65)CC4)c2=O)[C@H](C)N(C(=O)c2cc4cc([C@H]5CCOC(C)(C)C5)ccc4n2[C@@]2(c4noc(=O)[nH]4)C[C@@H]2C)CC3)cc(C)c1F (some centres unmarked) [Compound 22] | < 1
Cc1cc(-n2nc3c(c2-n2ccn(-c4ccc5c(c4)N(C)C(=O)C54CCN(C(=O)C5(c6ccccn6)CC5)CC4)c2=O)[C@H](C)N(C(=O)c2cc4cc([C@H]5CCOC(C)(C)C5)ccc4n2[C@@]2(c4noc(=O)[nH]4)C[C@@H]2C)CC3)cc(C)c1F [Compound 23] | < 1
Cc1cc(-n2nc3c(c2-n2ccn(-c4ccc5c(c4)N(C)C(=O)C54CCN(C(=O)c5cnn(C6CC6)c5)CC4)c2=O)[C@H](C)N(C(=O)c2cc4cc([C@H]5CCOC(C)(C)C5)ccc4n2[C@@]2(c4noc(=O)[nH]4)C[C@@H]2C)CC3)cc(C)c1F [Compound 25] | < 1
Cc1cc(-n2nc3c(c2-n2ccn(-c4ccc5c(c4)N(C)C(=O)C54CCN(C(=O)C56CC(F)(C5)C6)CC4)c2=O)[C@H](C)N(C(=O)c2cc4cc([C@H]5CCOC(C)(C)C5)ccc4n2[C@@]2(c4noc(=O)[nH]4)C[C@@H]2C)CC3)cc(C)c1F [Compound 26] | < 1
Cc1cc(-n2nc3c(c2-n2ccn(-c4ccc5c(c4)N(C)C(=O)C54CCN(C(=O)C5CCN(C(=O)C6CC6)CC5)CC4)c2=O)[C@H](C)N(C(=O)c2cc4cc([C@H]5CCOC(C)(C)C5)ccc4n2[C@@]2(c4noc(=O)[nH]4)C[C@@H]2C)CC3)cc(C)c1F [Compound 29] | < 1
Cc1cc(-n2nc3c(c2-n2ccn(-c4ccc5c(c4)N(C)C(=O)C54CCN(C(=O)c5cnn(C(F)F)c5)CC4)c2=O)[C@H](C)N(C(=O)c2cc4cc([C@H]5CCOC(C)(C)C5)ccc4n2[C@@]2(c4noc(=O)[nH]4)C[C@@H]2C)CC3)cc(C)c1F [Compound 30] | < 1
Cc1cc(-n2nc3c(c2-n2ccn(-c4ccc5c(c4)N(C)C(=O)C54CCN(C(=O)c5cnn(CC6CC6)c5)CC4)c2=O)[C@H](C)N(C(=O)c2cc4cc([C@H]5CCOC(C)(C)C5)ccc4n2[C@@]2(c4noc(=O)[nH]4)C[C@@H]2C)CC3)cc(C)c1F [Compound 32] | < 1
COP(=O)(OC)N1CCC2(CC1)C(=O)N(C)c1cc(-n3ccn(-c4c5c(nn4-c4cc(C)c(F)c(C)c4)CCN(C(=O)c4cc6cc([C@H]7CCOC(C)(C)C7)ccc6n4[C@@]4(c6noc(=O)[nH]6)C[C@@H]4C)[C@H]5C)c3=O)ccc12 [Compound 33] | < 1

SMILES | EC50 [nM]
Cc1cc(-n2nc3c(c2-n2ccn(-c4ccc5c(c4)N(C)C(=O)C54CCN(C(=O)C5(CF)CC5)CC4)c2=O)[C@H](C)N(C(=O)c2cc4cc([C@H]5CCOC(C)(C)C5)ccc4n2[C@@]2(c4noc(=O)[nH]4)C[C@@H]2C)CC3)cc(C)c1F [Compound 35] | < 1
Cc1cc(-n2nc3c(c2-n2ccn(-c4ccc5c(c4)N(C)C(=O)C54CCN(C(=O)COCC5CC5(F)F)CC4)c2=O)[C@H](C)N(C(=O)c2cc4cc([C@H]5CCOC(C)(C)C5)ccc4n2[C@@]2(c4noc(=O)[nH]4)C[C@@H]2C)CC3)cc(C)c1F (some centres unmarked) [Compound 37] | < 1
[2H]C([2H])([2H])N1C(=O)C2(CCN(S(=O)(=O)C3CC3)CC2)c2ccc(-n3ccn(-c4c5c(nn4-c4cc(C)c(F)c(C)c4)CCN(C(=O)c4cc6cc([C@H]7CCOC(C)(C)C7)ccc6n4[C@@]4(c6noc(=O)[nH]6)C[C@@H]4C)[C@H]5C)c3=O)cc21 [Compound 38] | < 1
[2H]C([2H])([2H])N1C(=O)C2(CCN(C(=O)C3C4COCC43)CC2)c2ccc(-n3ccn(-c4c5c(nn4-c4cc(C)c(F)c(C)c4)CCN(C(=O)c4cc6cc([C@H]7CCOC(C)(C)C7)ccc6n4[C@@]4(c6noc(=O)[nH]6)C[C@@H]4C)[C@H]5C)c3=O)cc21 (some centres unmarked) [Compound 39] | < 1
[2H]C([2H])([2H])N1C(=O)C2(CCN(C(=O)C3CC3F)CC2)c2ccc(-n3ccn(-c4c5c(nn4-c4cc(C)c(F)c(C)c4)CCN(C(=O)c4cc6cc(C7CCOC(C)(C)C7)ccc6n4C4(c6noc(=O)[nH]6)CC4C)C5C)c3=O)cc21 (centres unmarked) [Compound 40] | < 1
C[C@H]1c2c(nn(-c3ccc(F)c(C4CC4)c3)c2-n2ccn(-c3ccc4c(c3F)N(C)C(=O)C43CCOCC3)c2=O)CCN1C(=O)c1cc2cc([C@H]3CCOC(C)(C)C3)ccc2n1[C@@]1(c2noc(=O)[nH]2)C[C@@H]1C [Compound 42] | < 1
[2H]C([2H])([2H])N1C(=O)C2(CCOCC2)c2ccc(-n3ccn(-c4c5c(nn4-c4ccc(F)c(C6CC6)c4)CCN(C(=O)c4cc6cc([C@H]7CCOC(C)(C)C7)ccc6n4[C@@]4(c6noc(=O)[nH]6)C[C@@H]4C)[C@H]5C)c3=O)c(F)c21 [Compound 43] | < 1
[2H]C([2H])([2H])N1C(=O)C2(CCOCC2)c2ccc(-n3ccn(-c4c5c(nn4-c4ccc(F)c(C6(F)CC6)c4)CCN(C(=O)c4cc6cc([C@H]7CCOC(C)(C)C7)ccc6n4[C@@]4(c6noc(=O)[nH]6)C[C@@H]4C)[C@H]5C)c3=O)cc21 [Compound 44] | < 1
[2H]C([2H])([2H])N1C(=O)C2(CCOCC2)c2ccc(-n3ccn(-c4c5c(nn4-c4ccc(F)c(C6(F)CC6)c4)CCN(C(=O)c4cc6cc([C@H]7CCOC(C)(C)C7)ccc6n4[C@@]4(c6noc(=O)[nH]6)C[C@@H]4C)[C@H]5C)c3=O)c(F)c21 [Compound 45] | < 1
C[C@H]1c2c(nn(-c3ccc(F)c(C4(F)CC4)c3)c2-n2ccn(-c3ccc4c(c3F)N(C)C(=O)C43CCOCC3)c2=O)CCN1C(=O)c1cc2cc([C@H]3CCOC(C)(C)C3)ccc2n1[C@@]1(c2noc(=O)[nH]2)C[C@@H]1C [Compound 46] | < 1
Cc1cc(-n2nc3c(c2-n2ccn(-c4ccc5c(c4)N(C)C(=O)C54CCOCC4)c2=O)[C@H](C)N(C(=O)c2cc4cc(C5CCOCC5)ccc4n2[C@@]2(c4noc(=O)[nH]4)C[C@@H]2C)CC3)cc(C)c1F [Compound 47] | < 1
C[C@H]1c2c(nn(-c3ccc(F)c(C4(F)CC4)c3)c2-n2ccn(-c3ccc4c(c3F)N(C)C(=O)C43CCOCC3)c2=O)CCN1C(=O)c1cc2cc(C3CCOCC3)ccc2n1[C@@]1(c2noc(=O)[nH]2)C[C@@H]1C [Compound 49] | < 1
[2H]C([2H])([2H])N1C(=O)C2(CCOCC2)c2ccc(-n3ccn(-c4c5c(nn4-c4ccc(F)c(C6(F)CC6)c4)CCN(C(=O)c4cc6cc(C7CCOCC7)ccc6n4[C@@]4(c6noc(=O)[nH]6)C[C@@H]4C)[C@H]5C)c3=O)c(F)c21 [Compound 51] | < 1
C=C(F)c1cc(-n2nc3c(c2-n2ccn(-c4ccc5c(c4)N(C)C(=O)C54CCOCC4)c2=O)[C@H](C)N(C(=O)c2cc4cc([C@H]5CCOC(C)(C)C5)ccc4n2[C@@]2(c4noc(=O)[nH]4)C[C@@H]2C)CC3)ccc1F [Compound 52] | < 1
[2H]C([2H])([2H])N1C(=O)C2(CCOCC2)c2ccc(-n3ccn(-c4c5c(nn4-c4ccc(F)c(C(=C)F)c4)CCN(C(=O)c4cc6cc([C@H]7CCOC(C)(C)C7)ccc6n4[C@@]4(c6noc(=O)[nH]6)C[C@@H]4C)[C@H]5C)c3=O)cc21 [Compound 53] | < 1
Cc1cc(-n2nc3c(c2-n2ccn(-c4ccc5c(c4F)N(C)C(=O)C54CCOCC4)c2=O)[C@H](C)N(C(=O)c2cc4cc(C5CCOCC5)ccc4n2[C@@]2(c4noc(=O)[nH]4)C[C@@H]2C)CC3)cc(C)c1F [Compound 56] | < 1

Reference: patent publication EP4810500A1, “IMIDAZOL-2-ONE DERIVATIVE AND USE THEREOF IN MEDICINE” (Haisco Pharmaceutical Group Co., Ltd., priority 2023, dated 2025)
